According to PubChem BioAssay AID1259407 (Chemical Carcinogenesis Research Information System (CCRIS), 2018):
Active and inactive are the calls of the source. No rule for the calls is given here.

Test system: CCRIS mutagenicity, Ames/micronucleus/aberration tests
Test: CCRIS mutagenicity studies
[1] = Test System: AMES SALMONELLA TYPHIMURIUM, Strain/Indicator: TA98, Metabolic Activation: HAMSTER, LIVER, S-9, AROCLOR 1254 (10%), Method: PREINCUBATION
[2] = Test System: AMES SALMONELLA TYPHIMURIUM, Strain/Indicator: TA98, Metabolic Activation: NONE, Method: PREINCUBATION
[3] = Test System: AMES SALMONELLA TYPHIMURIUM, Strain/Indicator: TA98, Metabolic Activation: RAT, LIVER, S-9, AROCLOR 1254 (10%), Method: PREINCUBATION
[4] = Test System: AMES SALMONELLA TYPHIMURIUM, Strain/Indicator: TA100, Metabolic Activation: HAMSTER, LIVER, S-9, AROCLOR 1254 (10%), Method: PREINCUBATION
[5] = Test System: AMES SALMONELLA TYPHIMURIUM, Strain/Indicator: TA100, Metabolic Activation: NONE, Method: PREINCUBATION
[6] = Test System: AMES SALMONELLA TYPHIMURIUM, Strain/Indicator: TA1535, Metabolic Activation: HAMSTER, LIVER, S-9, AROCLOR 1254 (10%), Method: PREINCUBATION
[7] = Test System: AMES SALMONELLA TYPHIMURIUM, Strain/Indicator: TA1535, Metabolic Activation: NONE, Method: PREINCUBATION
[8] = Test System: AMES SALMONELLA TYPHIMURIUM, Strain/Indicator: TA1535, Metabolic Activation: RAT, LIVER, S-9, AROCLOR 1254 (10%), Method: PREINCUBATION
[9] = Test System: AMES SALMONELLA TYPHIMURIUM, Strain/Indicator: TA1537, Metabolic Activation: NONE, Method: PREINCUBATION
[10] = Test System: AMES SALMONELLA TYPHIMURIUM, Strain/Indicator: TA1538, Metabolic Activation: NONE, Method: PREINCUBATION
[11] = Test System: AMES SALMONELLA TYPHIMURIUM, Strain/Indicator: TA100, Metabolic Activation: NONE, Method: STANDARD PLATE

In the case of CCCCC(CC)CO (centres undefined), the mutagenic call [1] is reported as “inactive; negative”, the mutagenic call [2] is reported as “inactive; negative” and the mutagenic call (Test System: AMES SALMONELLA TYPHIMURIUM, Strain/Indicator: TA98, Metabolic Activation: RAT LIVER S-9, PHENOBARBITAL AND BETA-NAPHTHOFLAVONE, Method: PREINCUBATION) is reported as “inactive; negative”. For the same compound, the mutagenic call [3] was “inactive; negative”, the mutagenic call (Test System: AMES SALMONELLA TYPHIMURIUM, Strain/Indicator: TA98, Metabolic Activation: RAT, LIVER, S-9, KC 500, Method: PREINCUBATION) was “inactive; negative” and the mutagenic call [4] was “inactive; negative”. For the same compound, the mutagenic call [5] was “inactive; negative”, the mutagenic call (Test System: AMES SALMONELLA TYPHIMURIUM, Strain/Indicator: TA100, Metabolic Activation: RAT LIVER S-9, PHENOBARBITAL AND BETA-NAPHTHOFLAVONE, Method: PREINCUBATION) was “inactive; negative” and the mutagenic call (Test System: AMES SALMONELLA TYPHIMURIUM, Strain/Indicator: TA100, Metabolic Activation: RAT, LIVER, S-9, AROCLOR 1254 (10%), Method: PREINCUBATION) was “inactive; negative”. The mutagenic call (Test System: AMES SALMONELLA TYPHIMURIUM, Strain/Indicator: TA100, Metabolic Activation: RAT, LIVER, S-9, KC 500, Method: PREINCUBATION) was “inactive; negative”, the mutagenic call [6] was “inactive; negative” and the mutagenic call [7] was “inactive; negative”. The mutagenic call (Test System: AMES SALMONELLA TYPHIMURIUM, Strain/Indicator: TA1535, Metabolic Activation: RAT LIVER S-9, PHENOBARBITAL AND BETA-NAPHTHOFLAVONE, Method: PREINCUBATION) was “inactive; negative”, the mutagenic call [8] was “inactive; negative” and the mutagenic call (Test System: AMES SALMONELLA TYPHIMURIUM, Strain/Indicator: TA1535, Metabolic Activation: RAT, LIVER, S-9, KC 500, Method: PREINCUBATION) was “inactive; negative”. The mutagenic call (Test System: AMES SALMONELLA TYPHIMURIUM, Strain/Indicator: TA1537, Metabolic Activation: HAMSTER, LIVER, S-9, AROCLOR 1254 (10%), Method: PREINCUBATION) was “inactive; negative”, the mutagenic call [9] was “inactive; negative” and the mutagenic call (Test System: AMES SALMONELLA TYPHIMURIUM, Strain/Indicator: TA1537, Metabolic Activation: RAT LIVER S-9, PHENOBARBITAL AND BETA-NAPHTHOFLAVONE, Method: PREINCUBATION) was “inactive; negative”. The mutagenic call (Test System: AMES SALMONELLA TYPHIMURIUM, Strain/Indicator: TA1537, Metabolic Activation: RAT, LIVER, S-9, AROCLOR 1254 (10%), Method: PREINCUBATION) was “inactive; negative”, the mutagenic call (Test System: AMES SALMONELLA TYPHIMURIUM, Strain/Indicator: TA1537, Metabolic Activation: RAT, LIVER, S-9, KC 500, Method: PREINCUBATION) was “inactive; negative” and the mutagenic call [10] was “inactive; negative”. For the same compound, the mutagenic call (Test System: AMES SALMONELLA TYPHIMURIUM, Strain/Indicator: TA1538, Metabolic Activation: RAT, LIVER, S-9, KC 500, Method: PREINCUBATION) was “inactive; negative”, the mutagenic call (Test System: E. COLI, Strain/Indicator: WP2 UVRA, Metabolic Activation: NONE, Method: PREINCUBATION) was “inactive; negative” and the mutagenic call (Test System: E. COLI, Strain/Indicator: WP2UVRA, Metabolic Activation: NONE, Method: PREINCUBATION) was “inactive; negative”. The mutagenic call (Test System: E. COLI, Strain/Indicator: WP2UVRA, Metabolic Activation: RAT LIVER S-9, PHENOBARBITAL AND BETA-NAPHTHOFLAVONE, Method: PREINCUBATION) was “inactive; negative” and the mutagenic call (Test System: E. COLI, Strain/Indicator: WP2 UVRA, Metabolic Activation: RAT, LIVER, S-9, KC 500, Method: PREINCUBATION) was “inactive; negative”.
S=[Se] was tested, and the mutagenic call (End Point: IN VITRO CHROMOSOMAL ABERRATIONS, Test System: CHO-LB CELLS, Metabolic Activation: NONE) was “active; positive”, the mutagenic call (End Point: IN VITRO CHROMOSOMAL ABERRATIONS, Test System: CHO-LB CELLS, Metabolic Activation: RAT, LIVER, S-9, AROCLOR 1254) was “active; positive” and the mutagenic call (Test System: AMES SALMONELLA TYPHIMURIUM, Strain/Indicator: TA97, Metabolic Activation: HAMSTER, LIVER, S-9, AROCLOR 1254 (5 OR 10%), Method: PREINCUBATION) was “active; positive”. The mutagenic call (Test System: AMES SALMONELLA TYPHIMURIUM, Strain/Indicator: TA97, Metabolic Activation: HAMSTER, LIVER, S-9, AROCLOR 1254 (30%), Method: PREINCUBATION) was “inactive; negative”, the mutagenic call (Test System: AMES SALMONELLA TYPHIMURIUM, Strain/Indicator: TA97, Metabolic Activation: NONE, Method: PREINCUBATION) was “active; positive” and the mutagenic call (Test System: AMES SALMONELLA TYPHIMURIUM, Strain/Indicator: TA97, Metabolic Activation: RAT, LIVER, S-9, AROCLOR 1254 (5 OR 10%), Method: PREINCUBATION) was “active; positive”. For the same compound, the mutagenic call (Test System: AMES SALMONELLA TYPHIMURIUM, Strain/Indicator: TA97, Metabolic Activation: RAT, LIVER, S-9, AROCLOR 1254 (30%), Method: PREINCUBATION) was “inactive; negative”, the mutagenic call [1] was “inactive; negative” and the mutagenic call [2] was “inactive; negative”. For the same compound, the mutagenic call [3] was “inactive; negative”, the mutagenic call (Test System: AMES SALMONELLA TYPHIMURIUM, Strain/Indicator: TA100, Metabolic Activation: HAMSTER, LIVER, S-9, AROCLOR 1254 (5%), Method: PREINCUBATION) was “inactive; negative” and the mutagenic call [4] was “active; positive”. For the same compound, the mutagenic call [5] was “inactive; negative”, the mutagenic call (Test System: AMES SALMONELLA TYPHIMURIUM, Strain/Indicator: TA100, Metabolic Activation: RAT, LIVER, S-9, AROCLOR 1254 (5 OR 10%), Method: PREINCUBATION) was “inactive; negative” and the mutagenic call [6] was “inactive; negative”. For the same compound, the mutagenic call [7] was “inactive; negative” and the mutagenic call [8] was “inactive; negative”.
For Oc1cc(O)c2ccccc2c1, the mutagenic call [2] was “active; positive”, the mutagenic call [5] was “active; positive” and the mutagenic call (Test System: AMES SALMONELLA TYPHIMURIUM, Strain/Indicator: TA104, Metabolic Activation: NONE, Method: PREINCUBATION) was “active; positive”. For the same compound, the mutagenic call [7] was “inactive; negative”, the mutagenic call [9] was “inactive; negative” and the mutagenic call [10] was “inactive; negative”. For the same compound, the mutagenic call (Test System: AMES SALMONELLA TYPHIMURIUM, Strain/Indicator: TA2637, Metabolic Activation: NONE, Method: PREINCUBATION) was “active; positive” and the mutagenic call (Test System: AMES SALMONELLA TYPHIMURIUM, Strain/Indicator: TA2659, Metabolic Activation: NONE, Method: PREINCUBATION) was “inactive; negative”.
In the case of COc1ccccc1CC1CO1 (centres undefined), the mutagenic call [5] is reported as “active; positive”, the mutagenic call [11] is reported as “active; positive” and the mutagenic call [7] is reported as “active; positive”. The mutagenic call (Test System: AMES SALMONELLA TYPHIMURIUM, Strain/Indicator: TA1535, Metabolic Activation: NONE, Method: STANDARD PLATE) was “active; positive”.
ClC[C@H](Br)CBr was tested, and the mutagenic call (Test System: AMES SALMONELLA TYPHIMURIUM, Strain/Indicator: TA100, Metabolic Activation: RAT, LIVER, MICROSOMES, Method: PREINCUBATION) was “active; positive”.
For Fc1ccc2ccc3cccnc3c2c1, the mutagenic call (Test System: AMES SALMONELLA TYPHIMURIUM, Strain/Indicator: TA100, Metabolic Activation: RAT, LIVER, S-9, PHENOBARBITAL AND 5,6-BENZOFLAVONE, Method: PREINCUBATION) was “active; positive”.
For O=C1CCCc2ccc3c([N+](=O)[O-])c4ccccc4cc3c21, the mutagenic call (Test System: AMES SALMONELLA TYPHIMURIUM, Strain/Indicator: TA98, Metabolic Activation: NONE) was “inactive; negative”, the mutagenic call (Test System: AMES SALMONELLA TYPHIMURIUM, Strain/Indicator: TA98, Metabolic Activation: S-9) was “inactive; negative” and the mutagenic call (Test System: AMES SALMONELLA TYPHIMURIUM, Strain/Indicator: TA100, Metabolic Activation: NONE) was “inactive; negative”. For the same compound, the mutagenic call (Test System: AMES SALMONELLA TYPHIMURIUM, Strain/Indicator: TA100, Metabolic Activation: S-9) was “inactive; negative”.
In the case of Nc1nc2ccc(Cl)cc2[nH]1, the mutagenic call (Test System: AMES SALMONELLA TYPHIMURIUM, Strain/Indicator: TA98, Metabolic Activation: RAT, LIVER, S-9, AROCLOR 1254, Method: PREINCUBATION) is reported as “inactive; negative” and the mutagenic call (Test System: AMES SALMONELLA TYPHIMURIUM, Strain/Indicator: TA100, Metabolic Activation: RAT, LIVER, S-9, AROCLOR 1254, Method: PREINCUBATION) is reported as “inactive; negative”.
With Fc1ccc(CCl)cc1 the mutagenic call [11] was “inactive; negative”.
